Source: patent US20250206718A1, “NITROGEN-CONTAINING HETEROCYCLIC DERIVATIVE INHIBITOR, PREPARATION METHOD THEREFOR AND USE THEREOF” (SHANGHAI HANSOH BIOMEDICAL CO., LTD., priority 2022, published 2025)

What follows are molecules tested against Ba/F3 EGFR Del19/C797S cells (Homo sapiens, UniProt P00533, C797S, cells depend on it, form not given) (assay: Cell proliferation inhibition (Cell Titer-Glo), Ba/F3 EGFR Del19/C797S). Conditions: 72 hours, CellTiter-Glo, read-out: Ba/F3 EGFR Del19/C797S IC50.
Assay type: cell-based, mouse
Excerpt: Experimental objective: The objective of this test example is to test the inhibitory activity of compounds on the proliferation of different EGFR C797S drug-resistant mutant cell lines Ba/F3 EGFR Del19/T790M/C797S, Ba/F3 EGFR L858R/T790M/C797S, and Ba/F3 EGFR Del19/C797S.
• Ba/F3 EGFR Del19/T790M/C797S cells were purchased from KYinno Biotechnology Co., Ltd.; • Ba/F3 EGFR Del19/C797S cells were purchased from CoBioer Biosciences Co., Ltd.; • Ba/F3 EGFR L858R/T790M/C797S cells were purchased from CoBioer Biosciences Co., Ltd.; • Cell Titer-Glo was purchased from Promega, with a catalog number of G7573; • RPMI 1640 was purchased from Gibco, with a catalog number of 22400089; • FBS was purchased from Gibco, with a catalog number of 10091148; • cell culture plates were purchased from Corning, with a catalog number of 3610.
The inhibitory activity of the compound on the proliferation of different EGFR C797S drug-resistant mutant cell lines was detected using the Cell Titer-Glo method. The different cell lines were cultured in RPMI 1640 complete culture medium containing 10% FBS under conditions of 37° C. and 5% CO2, the cells were collected by centrifugation when growing to a certain density, and adjusted to appropriate cell density after counting, the cells were spread on a white 96-well plate at 90 μL/well, and cultured in a 37° C., 5% CO2 incubator overnight, prepared compound solutions of different concentrations were added at 10 μL/well, corresponding solvent controls were set, and all wells were cultured in a 37° C., 5% CO2 incubator for 72 hours, 50 μL of CellTiter-Glo solution was added to each well, shook and mixed evenly, and incubated in the dark for 10 minutes, and a BioTek Synergy H1 microplate reader was used for reading.
The luminescence signal value was used to calculate the inhibition rate. Graphpad Prism software was used to fit the concentration and inhibition rate to a nonlinear regression curve, so as to obtain the IC50 value, as shown in the Table below for details.

Ba/F3 EGFR Del19/C797S cells, sequence (P00533 with tags, fused parts or gaps DEL746-750/C797S, form open): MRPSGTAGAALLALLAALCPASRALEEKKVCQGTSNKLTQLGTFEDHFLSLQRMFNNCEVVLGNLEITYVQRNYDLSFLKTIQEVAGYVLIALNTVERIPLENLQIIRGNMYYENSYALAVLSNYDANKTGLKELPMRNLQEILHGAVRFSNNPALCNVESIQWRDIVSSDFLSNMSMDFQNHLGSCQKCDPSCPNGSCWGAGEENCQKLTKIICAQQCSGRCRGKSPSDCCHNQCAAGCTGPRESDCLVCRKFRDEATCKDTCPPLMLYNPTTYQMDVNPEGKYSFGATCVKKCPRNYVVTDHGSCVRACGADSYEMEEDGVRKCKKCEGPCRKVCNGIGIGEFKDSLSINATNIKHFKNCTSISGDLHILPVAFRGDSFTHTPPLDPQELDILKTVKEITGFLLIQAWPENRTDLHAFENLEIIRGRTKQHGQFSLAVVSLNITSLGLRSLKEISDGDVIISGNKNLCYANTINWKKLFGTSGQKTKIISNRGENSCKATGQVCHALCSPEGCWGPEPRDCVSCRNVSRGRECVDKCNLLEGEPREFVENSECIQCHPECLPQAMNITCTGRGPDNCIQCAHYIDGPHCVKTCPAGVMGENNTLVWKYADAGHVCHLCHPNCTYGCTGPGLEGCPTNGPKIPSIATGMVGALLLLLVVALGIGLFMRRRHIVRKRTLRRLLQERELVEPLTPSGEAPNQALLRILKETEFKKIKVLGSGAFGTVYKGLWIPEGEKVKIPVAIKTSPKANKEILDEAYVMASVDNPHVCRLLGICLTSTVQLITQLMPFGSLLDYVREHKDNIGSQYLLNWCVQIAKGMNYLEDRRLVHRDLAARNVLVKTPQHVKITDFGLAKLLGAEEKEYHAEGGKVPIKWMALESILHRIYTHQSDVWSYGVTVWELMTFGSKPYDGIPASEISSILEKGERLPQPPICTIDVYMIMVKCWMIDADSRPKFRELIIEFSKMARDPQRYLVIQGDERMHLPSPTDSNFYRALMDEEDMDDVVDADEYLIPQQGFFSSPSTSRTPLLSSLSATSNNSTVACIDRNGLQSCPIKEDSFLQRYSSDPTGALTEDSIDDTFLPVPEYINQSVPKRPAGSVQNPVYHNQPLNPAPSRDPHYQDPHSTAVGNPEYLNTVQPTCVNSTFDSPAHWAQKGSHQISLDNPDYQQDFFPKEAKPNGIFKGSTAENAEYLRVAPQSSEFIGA

Row | GI50 | SMILES
1 | 0.022 µM | CC(C)c1ccc(N2C[C@H](CS(C)(=O)=O)[C@H]2C)c2cnc(Nc3ccnc(-c4cn(C5CC(O)C5)nc4Cl)n3)cc12 (stereo partly drawn) [Example 154A, 3-(3-chloro-4-(4-((5-isopropyl-8-((2R,3S)-2-methyl-3-((methanesulfonyl)methyl)azetidin-1-yl)isoquinolin-3-yl)amino)pyrimidin-2-yl)-1H-pyrazol-1-yl)cyclobutan-1-ol]
2 | 0.074 µM | Cc1nn(C)cc1-c1nccc(Nc2cc3c(C(C)C)ccc(N4CC(CS(C)(=O)=NC#N)C4)c3cn2)n1 (stereo not drawn) [Example 167, N-(((1-(3-((2-(1,3-dimethyl-1H-pyrazol-4-yl)pyrimidin-4-yl)amino)-5-isopropylisoquinolin-8-yl)azetidin-3-yl)methyl)(methyl)(carbonyl)-16-sulfanylidene)cyanamide]
3 | 0.039 µM | CC(=O)Cn1cc(-c2nccc(Nc3cc4c(C(C)C)ccc(N5C[C@H](CS(C)(=O)=O)[C@H]5C)c4cn3)n2)c(Cl)n1 [Example 114, 1-(3-chloro-4-(4-((5-isopropyl-8-((2R,3S)-2-methyl-3-((methanesulfonyl)methyl)azetidin-1-yl)isoquinolin-3-yl)amino)pyrimidin-2-yl)-1H-pyrazol-1-yl)propan-2-one]
4 | 0.073 µM | CC(C)c1ccc(N2CC(N=S(C)(C)=O)C2)c2cnc(Nc3ccnc(-c4cn(C)nc4Cl)n3)cc12 [Example 102, ((1-(3-((2-(3-chloro-1-methyl-1H-pyrazol-4-yl)pyrimidin-4-yl)amino)-5-isopropylisoquinolin-8-yl)azetidin-3-yl)imino)dimethyl-16-sulfanone]
5 | 0.03 µM | CC(C)c1ccc(N2C[C@H](CS(C)(=O)=O)[C@H]2C)c2cnc(Nc3ccnc(-c4cn([C@@H]5CCOC5)nc4Cl)n3)cc12 [Example 143, N-(2-(3-chloro-1-((R)-tetrahydrofuran-3-yl)-1H-pyrazol-4-yl)pyrimidin-4-yl)-5-isopropyl-8-((2R,3S)-2-methyl-3-((methanesulfonyl)methyl)azetidin-1-yl)isoquinolin-3-amine]
6 | 0.022 µM | Cc1nn(C)cc1-c1nccc(Nc2cc3c(C(C)C)c(F)cc(N4CC(N(C)S(C)(=O)=O)C4)c3cn2)n1 [Example 129, N-(1-(3-((2-(1,3-dimethyl-1H-pyrazol-4-yl)pyrimidin-4-yl)amino)-6-fluoro-5-isopropylisoquinolin-8-yl)azetidin-3-yl)-N-methyl methanesulfonamide]
7 | 0.027 µM | CC(C)c1ncc(N2C[C@H](CS(C)(=O)=O)[C@H]2C)c2cnc(Nc3ccnc(-c4cn(C)nc4Cl)n3)cc12 [Example 133, N-(2-(3-chloro-1-methyl-1H-pyrazol-4-yl)pyrimidin-4-yl)-5-isopropyl-8-((2R,3S)-2-methyl-3-((methanesulfonyl)methyl)azetidin-1-yl)-2,6-diazanaphthalen-3-amine]
8 | 0.045 µM | CC(C)c1ccc(N2C[C@H](CS(C)(=O)=O)[C@H]2C)c2cnc(Nc3ccnc(-c4cn(C[C@@H]5CCCO5)nc4Cl)n3)cc12 [Example 145, N-(2-(3-chloro-1-(((S)-tetrahydrofuran-2-yl)methyl)-1H-pyrazol-4-yl)pyrimidin-4-yl)-5-isopropyl-8-((2R,3S)-2-methyl-3-((methanesulfonyl)methyl)azetidin-1-yl)isoquinolin-3-amine]
9 | 0.07 µM | CC(C)c1ccc(N2C[C@H](CS(C)(=O)=O)[C@H]2C)c2cnc(Nc3ccnc(-c4cn(C5CC6CN(C)CC6C5)nc4Cl)n3)cc12 (stereo partly drawn) [Example 150, N-(2-(3-chloro-1-(2-methyloctahydrocyclopentadieno[c]pyrrol-5-yl)-1H-pyrazol-4-yl)pyrimidin-4-yl)-5-isopropyl-8-((2R,3S)-2-methyl-3-((methanesulfonyl)methyl)azetidin-1-yl)isoquinolin-3-amine]
10 | 0.06 µM | CC(C)c1ccc(N2C[C@H](CS(C)(=O)=O)[C@H]2C)c2cnc(Nc3ccnc(-c4c[nH]nc4Cl)n3)cc12 [Example 170, N-(2-(3-chloro-1H-pyrazol-4-yl)pyrimidin-4-yl)-5-isopropyl-8-((2R,3S)-2-methyl-3-((methanesulfonyl)methyl)azetidin-1-yl)isoquinolin-3-amine]
11 | 0.073 µM | CC(C)c1ccc(N2C[C@H](CS(C)(=O)=O)[C@H]2C)c2cnc(Nc3ccnc(-c4cn(C(C)C#N)nc4Cl)n3)cc12 (stereo partly drawn) [Example 115, 2-(3-chloro-4-(4-((5-isopropyl-8-((2R,3S)-2-methyl-3-((methanesulfonyl)methyl)azetidin-1-yl)isoquinolin-3-yl)amino)pyrimidin-2-yl)-1H-pyrazol-1-yl)propanenitrile]
12 | 0.065 µM | CC1CC(Cn2cc(-c3nccc(Nc4cc5c(C(C)C)ccc(N6C[C@H](CS(C)(=O)=O)[C@H]6C)c5cn4)n3)c(Cl)n2)O1 (stereo partly drawn) [Example 188, N-(2-(3-chloro-1-((4-methyloxetan-2-yl)methyl)-1H-pyrazol-4-yl)pyrimidin-4-yl)-5-isopropyl-8-((2R,3S)-2-methyl-3-((methanesulfonyl)methyl)azetidin-1-yl)isoquinolin-3-amine]
13 | 0.026 µM | CC(C)c1ccc(N2C[C@H](CS(C)(=O)=O)[C@H]2C)c2cnc(Nc3ccnc(-c4cn(C[C@H]5CCCO5)nc4Cl)n3)cc12 [Example 144, N-(2-(3-chloro-1-(((R)-tetrahydrofuran-2-yl)methyl)-1H-pyrazol-4-yl)pyrimidin-4-yl)-5-isopropyl-8-((2R,3S)-2-methyl-3-((methanesulfonyl)methyl)azetidin-1-yl)isoquinolin-3-amine]
14 | 0.0074 µM | CC(C)c1ncc(N2CC(N(C)S(C)(=O)=O)C2)c2cnc(Nc3ccnc(-c4cn(C)nc4Cl)n3)cc12 [Example 131, N-(1-(7-((2-(3-chloro-1-methyl-1H-pyrazol-4-yl)pyrimidin-4-yl)amino)-1-isopropyl-2,6-diazanaphthalen-4-yl)azetidin-3-yl)-N-methyl methanesulfonamide]
15 | 0.017 µM | Cc1nn(C)cc1-c1nccc(Nc2cc3c(C(C)C)ccc(N4CC(N(C)S(C)(=O)=O)C4)c3cn2)n1 [Example 71, N-(1-(3-((2-(1,3-dimethyl-1H-pyrazol-4-yl)pyrimidin-4-yl)amino)-5-isopropylisoquinolin-8-yl)azetidin-3-yl)-N-methyl methanesulfonamide]
16 | 0.042 µM | CC(C)c1ccc(N2C[C@H](CS(C)(=O)=O)[C@H]2C)c2cnc(Nc3ccnc(-c4cn(C5CC(=O)C5)nc4Cl)n3)cc12 [Example 156, 3-(3-chloro-4-(4-((5-isopropyl-8-((2R,3S)-2-methyl-3-((methanesulfonyl)methyl)azetidin-1-yl)isoquinolin-3-yl)amino)pyrimidin-2-yl)-1H-pyrazol-1-yl)cyclobutan-1-one]
17 | 0.041 µM | CC(C)c1ccc(N2C[C@H](CS(C)(=O)=O)[C@H]2C)c2cnc(Nc3ccnc(-c4cn([C@H]5CCOC5)nc4Cl)n3)cc12 [Example 142, N-(2-(3-chloro-1-((S)-tetrahydrofuran-3-yl)-1H-pyrazol-4-yl)pyrimidin-4-yl)-5-isopropyl-8-((2R,3S)-2-methyl-3-((methanesulfonyl)methyl)azetidin-1-yl)isoquinolin-3-amine]
18 | 0.0056 µM | Cc1nn(C)cc1-c1nccc(Nc2cc3c(C(C)C)ncc(N4CC(N(C)S(C)(=O)=O)C4)c3cn2)n1 [Example 60, N-(1-(7-((2-(1,3-dimethyl-1H-pyrazol-4-yl)pyrimidin-4-yl)amino)-1-isopropyl-2,6-diazanaphthalen-4-yl)azetidin-3-yl)-N-methyl methanesulfonamide]
19 | 0.064 µM | CC(C)c1ccc(N2C[C@H](CS(C)(=O)=O)[C@H]2C)c2cnc(Nc3ccnc(-c4cn(C5CC6(COC6)C5)nc4Cl)n3)cc12 [Example 141, N-(2-(3-chloro-1-(2-oxaspiro[3.3]heptan-6-yl)-1H-pyrazol-4-yl)pyrimidin-4-yl)-5-isopropyl-8-((2R,3S)-2-methyl-3-((methanesulfonyl)methyl)azetidin-1-yl)isoquinolin-3-amine]
20 | 0.08 µM | CC(C)c1ccc(N2C[C@H](CS(C)(=O)=O)[C@H]2C)c2cnc(Nc3ccnc(-c4cn(C(C)CC#N)nc4Cl)n3)cc12 (stereo partly drawn) [Example 185, 3-(3-chloro-4-(4-((5-isopropyl-8-((2R,3S)-2-methyl-3-((methanesulfonyl)methyl)azetidin-1-yl)isoquinolin-3-yl)amino)pyrimidin-2-yl)-1H-pyrazol-1-yl)butyronitrile]
21 | 0.005 µM | CC(C)c1ncc(N2C[C@H](N(C)S(C)(=O)=O)[C@H]2C)c2cnc(Nc3ccnc(-c4cn(C)nc4Cl)n3)cc12 [Example 59, N-((2R,3S)-1-(7-((2-(3-chloro-1-methyl-1H-pyrazol-4-yl)pyrimidin-4-yl)amino)-1-isopropyl-2,6-diazanaphthalen-4-yl)-2-methylazetidin-3-yl)-N-methyl methanesulfonamide]
